Read-outs that look alike come from different tables or passages of the source.
Assays:
[1] = molecular target: CSF1R (FMS) (Homo sapiens, UniProt P07333); assay: CSF1R inhibition assay (Z'-LYTE); assay type: biochemical; conditions: read-out: % inhibition of CSF1R
Method: Compounds were assayed as inhibitors of […] in a manner substantially similar to the method described by Invitrogen Corp (Invitrogen Corporation, 1600 Faraday Avenue, Carlsbad, Calif., CA) using the […] biochemical assay procedure or similar biochemical assay. The 2×CSF1R (FMS)/[…] Peptide Mixture was prepared in 50 mM HEPES pH 7.5, 0.01% BRIJ-35, 10 mM MgCl2, 1 mM EGTA. The final […] Kinase Reaction consisted of 0.2-67.3 ng CSF1R (FMS) and 2 μM […] Peptide in 50 mM HEPES pH 7.5, 0.01% BRIJ-35, 10 mM MgCl2, 1 mM EGTA. After the 1 hour Kinase Reaction incubation, 5 μL of a 1:128 dilution of Development Reagent B was added.

[2] = molecular target: T1, c-KIT (Homo sapiens, UniProt P10721); assay: cKIT inhibition assay (electrophoretic mobility shift); assay type: biochemical; design: purchased Millipore 14-559
T1 sequence (P10721 26-976): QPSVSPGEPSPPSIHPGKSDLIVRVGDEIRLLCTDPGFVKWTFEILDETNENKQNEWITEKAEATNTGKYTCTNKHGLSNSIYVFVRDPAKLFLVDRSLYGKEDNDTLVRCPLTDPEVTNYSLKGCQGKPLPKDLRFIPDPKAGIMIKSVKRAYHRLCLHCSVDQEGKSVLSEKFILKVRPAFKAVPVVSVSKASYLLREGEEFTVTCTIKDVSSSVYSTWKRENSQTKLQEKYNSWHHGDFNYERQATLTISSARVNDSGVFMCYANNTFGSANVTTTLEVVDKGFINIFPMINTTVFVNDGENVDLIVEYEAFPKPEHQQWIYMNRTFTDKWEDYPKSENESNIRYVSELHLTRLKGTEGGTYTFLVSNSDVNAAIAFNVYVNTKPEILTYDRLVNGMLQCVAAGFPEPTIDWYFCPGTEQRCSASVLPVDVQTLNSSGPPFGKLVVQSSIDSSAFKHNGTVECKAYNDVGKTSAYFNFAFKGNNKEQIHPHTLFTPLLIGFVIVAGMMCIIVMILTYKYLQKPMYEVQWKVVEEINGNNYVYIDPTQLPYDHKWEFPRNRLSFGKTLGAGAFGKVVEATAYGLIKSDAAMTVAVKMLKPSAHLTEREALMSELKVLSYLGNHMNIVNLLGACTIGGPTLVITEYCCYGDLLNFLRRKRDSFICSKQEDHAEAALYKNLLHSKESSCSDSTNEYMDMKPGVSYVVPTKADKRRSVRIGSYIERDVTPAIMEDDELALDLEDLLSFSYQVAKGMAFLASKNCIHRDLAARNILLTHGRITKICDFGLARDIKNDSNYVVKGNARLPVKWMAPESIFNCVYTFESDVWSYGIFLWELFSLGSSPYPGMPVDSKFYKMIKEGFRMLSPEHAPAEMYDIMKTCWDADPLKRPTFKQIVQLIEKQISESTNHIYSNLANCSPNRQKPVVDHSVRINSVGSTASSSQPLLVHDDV
Method: The reaction was started by adding the ATP and incubating for 1 hour at room temperature. […] Phosphorylated and unphosphorylated substrate was separated by charge using electrophoretic mobility shift.

[3] = molecular target: CSF1R (Homo sapiens, UniProt P07333); assay: CSF1R mass spectral analysis of tryptic digest; assay type: binding; conditions: 3 hrs at 10× excess, tryptic digest MALDI
CSF1R, sequence (P07333 20-972): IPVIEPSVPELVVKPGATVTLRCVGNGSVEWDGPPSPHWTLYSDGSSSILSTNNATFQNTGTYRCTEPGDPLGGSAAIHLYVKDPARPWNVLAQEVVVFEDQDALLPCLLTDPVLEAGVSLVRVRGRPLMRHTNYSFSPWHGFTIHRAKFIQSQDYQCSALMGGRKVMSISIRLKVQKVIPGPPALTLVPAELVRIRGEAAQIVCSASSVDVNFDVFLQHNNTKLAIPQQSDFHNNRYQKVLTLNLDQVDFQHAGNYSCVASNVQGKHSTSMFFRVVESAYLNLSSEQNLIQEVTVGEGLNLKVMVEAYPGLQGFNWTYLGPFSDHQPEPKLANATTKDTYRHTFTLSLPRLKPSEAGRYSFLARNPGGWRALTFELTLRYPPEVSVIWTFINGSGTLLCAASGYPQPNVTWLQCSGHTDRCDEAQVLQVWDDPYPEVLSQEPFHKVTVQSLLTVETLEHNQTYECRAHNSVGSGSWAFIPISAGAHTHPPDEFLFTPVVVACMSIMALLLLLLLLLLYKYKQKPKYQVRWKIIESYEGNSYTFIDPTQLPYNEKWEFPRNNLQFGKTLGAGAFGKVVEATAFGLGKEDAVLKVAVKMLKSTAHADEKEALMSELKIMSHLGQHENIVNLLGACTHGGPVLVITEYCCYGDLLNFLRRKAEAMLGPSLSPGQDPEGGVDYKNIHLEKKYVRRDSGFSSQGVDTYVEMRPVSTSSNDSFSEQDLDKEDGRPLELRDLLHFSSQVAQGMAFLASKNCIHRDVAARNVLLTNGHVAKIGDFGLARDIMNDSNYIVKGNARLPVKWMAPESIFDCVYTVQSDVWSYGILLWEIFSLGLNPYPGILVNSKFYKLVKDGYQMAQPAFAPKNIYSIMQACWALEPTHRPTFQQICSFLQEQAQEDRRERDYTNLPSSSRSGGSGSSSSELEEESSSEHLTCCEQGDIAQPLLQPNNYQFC
Method: (§1) Iodoacetamide was used as the alkylating agent after compound incubation. For tryptic digests, a 2 μl aliquot (0.09 μg/μl) was diluted with 10 μl of 0.1% TFA prior to micro C18 Zip Tipping directly onto the MALDI target using alpha cyano-4-hydroxy cinnamic acid as the matrix (5 mg/ml in 0.1% TFA:Acetonitrile 50:50).
For tryptic digests, the instrument was set in Reflectron mode with a pulsed extraction setting of 1800. Calibration was done using the Laser Biolabs Pep Mix standard (1046.54, 1296.69, 1672.92, 2093.09, 2465.20). For CID/PSD analysis the peptide was selected using cursors to set ion gate timing and fragmentation occurred at a laser power about 20% higher and He was used as the collision gas for CID. Calibration for fragments was done using the P14R fragmentation calibration for the Curved field Reflectron. Database searching of the tryptic digest of CSF identified it correctly. […] PSD analysis of this peptide signal (1160.50) gave enough fragments to allow for a database MS/MS ion search which verified the sequence of this peptide.

[4] = molecular target: T1, c-KIT; assay: c-KIT mass spectral analysis of tryptic digest; assay type: binding; conditions: 3 hours at 10× excess, tryptic digest MALDI-TOF
Method: (§2) Iodoacetamide was used as the alkylating agent after compound incubation. For tryptic digests a 5 μl aliquot (14 pmols) was diluted with 10 ul of 0.1% TFA prior to micro C18 Zip Tipping directly onto the MALDI target using alpha cyano-4-hydroxy cinnamic acid as the matrix (5 mg/ml in 0.1% TFA:acetonitrile 50:50).
The tryptic digest was analyzed by mass spectrometer (MALDI-TOF).
as §1, with “incubation. […]” for “incubation.”, “digests” for “digests,”, “(3.3 pmols)” for “(0.09 μg/μl)”
For tryptic digests the instrument was set in Reflectron mode with a pulsed extraction setting of 2200. […] Calibration for fragments was done using the P14R fragmentation calibration for the Curved field Reflectron.

[5] = molecular target: T2, Flt3 (Homo sapiens, UniProt P36888); assay: Flt3 mass spectral analysis of tryptic digest; assay type: binding; conditions: 3 hrs at 100× excess, tryptic digest MALDI
T2 sequence (P36888 27-993): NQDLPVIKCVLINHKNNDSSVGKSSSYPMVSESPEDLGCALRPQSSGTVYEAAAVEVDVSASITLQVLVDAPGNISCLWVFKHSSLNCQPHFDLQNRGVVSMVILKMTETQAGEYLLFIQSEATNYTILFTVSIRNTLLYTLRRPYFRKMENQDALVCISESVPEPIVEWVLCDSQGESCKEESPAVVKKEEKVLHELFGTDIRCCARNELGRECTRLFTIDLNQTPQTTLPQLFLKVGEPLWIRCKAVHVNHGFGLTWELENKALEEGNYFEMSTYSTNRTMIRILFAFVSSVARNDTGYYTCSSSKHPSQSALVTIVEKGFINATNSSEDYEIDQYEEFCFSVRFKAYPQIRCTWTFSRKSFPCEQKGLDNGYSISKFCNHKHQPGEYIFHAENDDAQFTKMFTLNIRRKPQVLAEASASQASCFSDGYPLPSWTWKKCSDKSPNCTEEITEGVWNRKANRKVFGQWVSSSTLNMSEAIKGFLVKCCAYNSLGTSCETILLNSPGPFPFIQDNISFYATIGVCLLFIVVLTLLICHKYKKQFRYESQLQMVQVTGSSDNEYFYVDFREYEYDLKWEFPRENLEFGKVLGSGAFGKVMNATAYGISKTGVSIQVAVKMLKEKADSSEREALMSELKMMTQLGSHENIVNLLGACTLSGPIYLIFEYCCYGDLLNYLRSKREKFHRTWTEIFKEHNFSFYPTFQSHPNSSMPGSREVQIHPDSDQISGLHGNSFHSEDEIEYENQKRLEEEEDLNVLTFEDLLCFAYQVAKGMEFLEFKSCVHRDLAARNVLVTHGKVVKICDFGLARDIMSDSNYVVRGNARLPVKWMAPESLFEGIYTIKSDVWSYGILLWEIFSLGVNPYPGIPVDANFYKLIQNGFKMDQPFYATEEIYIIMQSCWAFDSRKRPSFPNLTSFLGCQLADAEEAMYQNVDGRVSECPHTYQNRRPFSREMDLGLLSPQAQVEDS
Method: as §2, with “Flt3 was incubated with Compound 4 for 3 hrs at 100× excess prior to tryptic digestion. Iodoacetamide” for “Iodoacetamide”, “ul” for “μl”, “(7” for “(14”, “TFA:Acetonitrile” for “TFA:acetonitrile”
The mass spec instrument was set in Reflectron mode with a pulsed extraction setting of 1800. Calibration was done using the Laser Biolabs Pep Mix standard (1046.54, 1296.69, 1672.92, 2093.09, 2465.20). For CID/PSD analysis the peptide was selected using cursors to set ion gate timing and fragmentation occurred at a laser power about 20% higher and He was used as the collision gas for CID. Calibration for fragments was done using the P14R fragmentation calibration for the Curved field Reflectron.

[6] = molecular target: T2, Flt3; assay: FLT3 biochemical assay (continuous-read kinase assay); design: purchased Invitrogen PV3182; conditions: 500 μM ATP; read-out: IC50 for inhibition of FLT3 phosphorylation
[7] = system: HCV RNA replicon; assay: Replicon assay (luciferase, ET Huh7 cell line); conditions: Hepatitis C virus, Huh-7, 72 h, read-out: EC50 replicon assay
Method: The compounds were assayed to evaluate the antiviral activity and cytotoxicity of compounds using replicon-derived luciferase activity. This assay used the cell line ET (luc-ubi-neo/ET), which is a human Huh7 hepatoma cell line that contains an HCV RNA replicon with a stable luciferase (Luc) reporter and three cell culture-adaptive mutations.
The ET cell line was grown in Dulbecco's modified essential media (DMEM), 10% fetal bovine serum (FBS), 1% penicillin-streptomycin (pen-strep), 1% glutamine, 1% non essential amino acid, 400 μg/mL G418 in a 5% CO2 incubator at 37° C. All cell culture reagents were obtained from Invitrogen(Carlsbad). Cells were trypsinized (1% trypsin:EDTA) and plated out at 5×10^3 cells/well in white 96-well assay plates (Costar) dedicated to cell number (cytotoxicity) or antiviral activity assessments. Compounds were added at six 3-fold concentrations each and the assay was run in DMEM, 5% FBS, 1% pen-strep, 1% glutamine, 1% non essential amino acid. Human interferon alpha-2b (PBL Biolabs, New Brunswick, N.J.) was included in each run as a positive control compound. Cells were processed 72 hr post compound addition when the cells are still subconfluent. Antiviral activity was measured by analyzing replicon-derived luciferase activity using the Steady-Glo Luciferase Assay System (Promega, Madison, Wis.) according to manufacturer's instruction. The number of cells in each well was determined by Cell Titer Blue Assay (Promega).

[8] = molecular target: T3, cKIT in GIST882 cells (Homo sapiens, UniProt P10721, K642E); assay: GIST882 cellular assay with washout (western blot); assay type: cell-based; conditions: for cKIT autophosphorylation / downstream signaling of ERK: 1 micromolar
T3 construct: endogenous in cells; host or cells: GIST882 cells
T3 sequence (P10721 26-976 K642E): as the sequence (P10721 26-976) above, with K617E counted along it
Method: GIST882 cells were seeded in a 6 well plate at a density of 8×10^5 cells/well in complete media. The next day cells were treated with 1 uM compound diluted in complete media for 90 minutes. After 90 minutes, the media was removed and cells were washed with compound-free media. Cells were washed every 2 hours and resuspended in fresh compound-free media.

[9] = molecular target: T4, Btk (Homo sapiens, UniProt Q06187); assay: Omnia assay for potency against Btk; conditions: biochemical assay; read-out: IC50 Btk kinase
T4 construct: purchased Invitrogen
T4 sequence (Q06187 whole entry): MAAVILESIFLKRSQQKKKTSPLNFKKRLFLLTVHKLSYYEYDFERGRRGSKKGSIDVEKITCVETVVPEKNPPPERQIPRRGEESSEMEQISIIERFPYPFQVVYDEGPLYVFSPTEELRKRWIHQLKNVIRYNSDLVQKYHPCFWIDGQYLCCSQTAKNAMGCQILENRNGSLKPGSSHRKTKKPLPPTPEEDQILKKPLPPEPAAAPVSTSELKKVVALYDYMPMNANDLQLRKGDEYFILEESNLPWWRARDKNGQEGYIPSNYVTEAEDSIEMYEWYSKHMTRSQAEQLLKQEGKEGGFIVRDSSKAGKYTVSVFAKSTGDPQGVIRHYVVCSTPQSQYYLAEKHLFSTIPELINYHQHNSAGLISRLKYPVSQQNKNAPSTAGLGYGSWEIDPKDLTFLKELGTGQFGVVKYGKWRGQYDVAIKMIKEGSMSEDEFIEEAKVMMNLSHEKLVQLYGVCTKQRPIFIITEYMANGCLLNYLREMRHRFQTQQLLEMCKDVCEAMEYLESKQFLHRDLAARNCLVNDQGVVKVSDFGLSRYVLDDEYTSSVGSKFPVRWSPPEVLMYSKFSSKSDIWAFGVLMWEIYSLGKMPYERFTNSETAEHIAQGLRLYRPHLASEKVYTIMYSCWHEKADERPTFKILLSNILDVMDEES
Method: The protocol below describes continuous-read kinase assays to measure inherent potency of compounds against active forms of Btk enzyme. The mechanics of the assay platform are best described by the vendor (Invitrogen, Carlsbad, Calif.) on the world wide web at invitrogen.com/site/us/en/home/Products-and-Services/Applications/Drug-Discovery/Target-and-Lead-Identification-and-Validation/KinaseBiology/KB-Misc/Biochemical-Assays/Omnia-Kinase-Assays.html. Briefly, 10× stocks of 5 nM Btk from Invitrogen, 1.13×40 μM ATP (AS001A) and 10 μM (ATP KMapp ˜[…]) Tyr-Sox conjugated peptide substrates (KCZ 1001) were prepared in 1× kinase reaction buffer consisting of 20 mM Tris, pH 7.5, 5 mM MgCl2, 1 mM EGTA, 5 mM β-glycerophosphate, 5% glycerol (10× stock, KBOO2A) and 0.2 mM DTT (DS001A).

[10] = molecular target: HCV NS3/4A 1b protease WT (Hepatitis C virus genotype 1b, UniProt P26662); assay: HCV Protease FRET Assay for wild type NS3/4A 1b enzyme (IC50); assay type: biochemical; conditions: 30 min pre-incubation
HCV NS3/4A 1b protease WT, sequence (P26662 1658-1711): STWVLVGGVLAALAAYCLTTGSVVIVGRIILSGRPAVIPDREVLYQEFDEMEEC
HCV NS3/4A 1b protease WT, sequence (P26662 1027-1208): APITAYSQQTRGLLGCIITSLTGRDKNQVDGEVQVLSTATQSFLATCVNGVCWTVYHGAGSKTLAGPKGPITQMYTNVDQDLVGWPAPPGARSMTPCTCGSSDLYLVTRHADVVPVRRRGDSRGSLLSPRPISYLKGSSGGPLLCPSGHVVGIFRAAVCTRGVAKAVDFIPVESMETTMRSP

[11] = molecular target: HCV NS3/4A 1b protease D168A (Hepatitis C virus genotype 1b, UniProt P26662, D1194A); assay: HCV Protease FRET Assay for mutated NS3/4A 1b enzyme (IC50); assay type: biochemical; conditions: 30 min pre-incubation
HCV NS3/4A 1b protease D168A, sequence (P26662 1027-1208 D1194A): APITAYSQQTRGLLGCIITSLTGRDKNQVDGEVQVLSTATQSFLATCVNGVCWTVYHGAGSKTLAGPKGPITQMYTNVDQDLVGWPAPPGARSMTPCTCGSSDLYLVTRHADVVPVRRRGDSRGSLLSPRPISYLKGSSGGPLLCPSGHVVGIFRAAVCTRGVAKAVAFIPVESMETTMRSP
HCV NS3/4A 1b protease D168A, sequence (P26662 1658-1711 partner limits assumed): as the sequence (P26662 1658-1711) above
Source text: 279, No. 17, pp 17508-17514.

[12] = molecular target: HCV NS3/4A 1b protease (Hepatitis C virus genotype 1b, UniProt P26662); assay: biochemical
HCV NS3/4A 1b protease, sequence (P26662 1027-1208): as the sequence (P26662 1027-1208) above
HCV NS3/4A 1b protease, sequence (P26662 1658-1711): as the sequence (P26662 1658-1711) above
Method: An HCV Protease FRET Assay for HCV NS3/4A 1b Enzyme (IC50_APP) was used. The following protocol was used to generate “apparent” IC50 (IC50_APP) values. […] Protease reactions were immediately started after enzyme addition with the addition of 45 μL of the FRET substrate and monitored for 60-90 minutes at λex485/λem520 in a Synergy4 plate reader from BioTek (Winooski, Vt.).

[13] = 1 uM for 90 minutes, then washed free of compound

CSF1R (FMS), sequence (P07333 20-972): as the sequence (P07333 20-972) above

With C=CC(=O)Nc1ccc(C(=O)Nc2ccc(C)c(Nc3nccc(-c4cccnc4)n3)c2)cc1 [Compound 1, 4-acrylamido-N-(4-methyl-3-(4-(pyridin-3-yl)pyrimidin-2-ylamino)phenyl)benzamide] the inhibition at 10 µM ([1]; 10 μM compound) was 72% and the inhibition at 1 µM ([2]; read-out: % Inhibition of c-KIT) was 82%.
For C=CC(=O)Nc1ccc(C(=O)Nc2ccc(C)c(Nc3nccc(-c4cccnc4)n3)c2)cc1C(F)(F)F [Compound 2, 4-Acrylamido-N-(4-methyl-3-(4-pyridin-3-yl)pyrimidin-2-ylamino)phenyl-3-(trifluoromethyl)benzamide], the inhibition at 10 µM [1] was 89% and the “covalent modification of CSF1R (modified peptide)” value [3] was “NCIHR”.
Cc1ccc(C(=O)Nc2ccc(NC(=O)CCl)c(C(F)(F)F)c2)cc1Nc1nccc(-c2cccnc2)n1 [Compound 3] was tested, and the “covalent modification of c-KIT (site or peptide)” value [4] was “Cys788 (major) and: Cys808 (minor)”.
In the case of C=CC(=O)Nc1ccc(Sc2nc(Nc3cc(C)n[nH]3)cc(N3CCN(C)CC3)n2)cc1 [Compound 4, N-(4-(4-(3-Methyl-1H-pyrazol-5-ylamino)-6-(4-methylpiperiazin-1-yl)pyrimidin-2ylthio)phenyl)acrylamide], the “covalent modification of Flt3 (modified peptide)” value [5] is reported as “ICDFGLAR with Compound 4 attached” and the IC50 [6] is reported as 2.2 nM.
Work on C=CC(=O)NC[C@H](NC(=O)OC(C)(C)C)C(=O)N1C[C@H](Oc2cc(-c3ccccc3)nc3cc(OC)ccc23)C[C@H]1C(=O)N[C@]1(C(=O)NS(=O)(=O)c2ccccc2)C[C@H]1C=C [Compound 6, N-[(1,1-dimethylethoxy)carbonyl]-3-[(2-propenoyl)amino]-L-alanyl-(4R)-4-[(7-methoxy-2-phenyl-4-quinolinyl)oxy]-L-prolyl-1-amino-2-ethenyl-N-(phenylsulfonyl)-(1R,2S)-cyclopropanecarboxamide] yielded an EC50 [7] of 174 nM.
In the case of C=CC(=O)Nc1ccc(NC(=O)Nc2ccc(Oc3ccnc(C(=O)NC)c3)cc2)cc1C(F)(F)F [Compound 7, 4-(4-(3-(4-Acrylamido-3-(trifluoromethyl)phenyl)ureido)phenoxy)-N-methylpicolinamide], the “covalent modification of c-KIT (site or peptide)” value [4] is reported as “NCIHR”, the “persistence of inhibition after washout” value [8, 13] is reported as “at least 8 hours” and the cKIT autophosphorylation [8] is reported as “inhibited”. For the same molecule, the “downstream signaling of ERK” value [8] was “inhibited” and the IC50 ([2]; inhibition of cKIT phosphorylation) was 31 nM.
In the case of CCC(=O)Nc1cccc(Nc2cc(Nc3ccc(Oc4ccccc4)cc3)ncn2)c1 [Compound 9], the IC50 [9] is reported as 8600 nM.
C=C[C@@H]1C[C@]1(NC(=O)[C@@H]1C[C@@H](Oc2cc(-c3ccccc3)nc3cc(OC)ccc23)CN1C(=O)CNC(=O)CC)C(=O)NS(=O)(=O)c1ccccc1 [Compound 11, reference compound] showed an IC50 [10] of 165 nM, an IC50 [11] of over 3000 nM and an EC50 [7] of over 3000 nM.
For C=CC(=O)NCC(=O)N1C[C@H](Oc2cc(-c3ccccc3)nc3cc(OC)ccc23)C[C@H]1C(=O)N[C@]1(C(=O)NS(=O)(=O)c2ccccc2)C[C@H]1C=C [Compound 12, (2S,4R)-1-(2-acrylamidoacetyl)-4-(7-methoxy-2-phenylquinolin-4-yloxy)-N-((1R,2S)-1-(phenylsulfonylcarbamoyl)-2-vinylcyclopropyl)pyrrolidine-2-carboxamide], the IC50 [10] was 0.3 nM, the IC50 [11] was 17 nM and the EC50 [7] was 204 nM.
Work on C=CC1C[C@]1(NC(=O)[C@@H]1C[C@@H](Oc2cc(-c3ccccc3)nc3cc(OC)ccc23)CN1C(=O)C(NC(=O)OC(C)(C)C)C(C)C)C(=O)NS(=O)(=O)c1ccccc1 (stereo partly drawn) [Compound V-1, reference compound] yielded an IC50 [12] of 0.4 nM.
For CNC(=O)c1cc(Oc2ccc(NC(=O)Nc3ccc(Cl)c(C(F)(F)F)c3)cc2)ccn1 [Sorafenib, sorafenib, reference compound], the “inhibitory activity of ckit and downstream signaling after washout” value [8, 13] was “overcome”, the cKIT autophosphorylation [8] was “inhibited” and the “downstream signaling of ERK” value [8] was “inhibited”.

Reference: patent US20100185419A1, “ALGORITHM FOR DESIGNING IRREVERSIBLE INHIBITORS” (Avila Therapeutics, Inc., priority 2008, published 2010)
